Assay results taken from ChEMBL document CHEMBL1140747, “Discovery of potent and selective dipeptidyl peptidase IV inhibitors derived from beta-aminoamides bearing subsituted triazolopiperazines” (J Med Chem, 2008).
pIC50: −log10 of the molar value.

Tests used:
Xaa-Pro aminopeptidase 1 = Xaa-Pro aminopeptidase 1 (Homo sapiens, UniProt Q9NQW7); experiment: Inhibition of amino peptidase P
Xaa-Pro dipeptidase = target: T1, Xaa-Pro dipeptidase (Homo sapiens, UniProt P12955); experiment: Inhibition of prolidase
T1 sequence (P12955 whole entry): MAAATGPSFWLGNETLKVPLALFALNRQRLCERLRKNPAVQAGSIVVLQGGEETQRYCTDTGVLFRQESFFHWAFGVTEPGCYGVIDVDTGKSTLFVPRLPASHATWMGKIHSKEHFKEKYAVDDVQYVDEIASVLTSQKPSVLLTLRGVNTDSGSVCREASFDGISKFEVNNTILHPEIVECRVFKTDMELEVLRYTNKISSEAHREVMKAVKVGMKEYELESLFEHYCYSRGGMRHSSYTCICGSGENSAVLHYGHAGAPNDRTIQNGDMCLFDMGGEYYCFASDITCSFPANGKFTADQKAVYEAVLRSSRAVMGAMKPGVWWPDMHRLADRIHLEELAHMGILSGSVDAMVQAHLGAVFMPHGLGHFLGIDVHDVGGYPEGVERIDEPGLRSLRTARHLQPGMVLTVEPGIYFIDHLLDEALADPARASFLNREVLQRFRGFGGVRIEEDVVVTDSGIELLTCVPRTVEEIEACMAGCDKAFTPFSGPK

Dipeptidyl peptidase 4 = Dipeptidyl peptidase 4 (Homo sapiens, UniProt P27487)
Sequence of Dipeptidyl peptidase 4 (P27487 whole entry): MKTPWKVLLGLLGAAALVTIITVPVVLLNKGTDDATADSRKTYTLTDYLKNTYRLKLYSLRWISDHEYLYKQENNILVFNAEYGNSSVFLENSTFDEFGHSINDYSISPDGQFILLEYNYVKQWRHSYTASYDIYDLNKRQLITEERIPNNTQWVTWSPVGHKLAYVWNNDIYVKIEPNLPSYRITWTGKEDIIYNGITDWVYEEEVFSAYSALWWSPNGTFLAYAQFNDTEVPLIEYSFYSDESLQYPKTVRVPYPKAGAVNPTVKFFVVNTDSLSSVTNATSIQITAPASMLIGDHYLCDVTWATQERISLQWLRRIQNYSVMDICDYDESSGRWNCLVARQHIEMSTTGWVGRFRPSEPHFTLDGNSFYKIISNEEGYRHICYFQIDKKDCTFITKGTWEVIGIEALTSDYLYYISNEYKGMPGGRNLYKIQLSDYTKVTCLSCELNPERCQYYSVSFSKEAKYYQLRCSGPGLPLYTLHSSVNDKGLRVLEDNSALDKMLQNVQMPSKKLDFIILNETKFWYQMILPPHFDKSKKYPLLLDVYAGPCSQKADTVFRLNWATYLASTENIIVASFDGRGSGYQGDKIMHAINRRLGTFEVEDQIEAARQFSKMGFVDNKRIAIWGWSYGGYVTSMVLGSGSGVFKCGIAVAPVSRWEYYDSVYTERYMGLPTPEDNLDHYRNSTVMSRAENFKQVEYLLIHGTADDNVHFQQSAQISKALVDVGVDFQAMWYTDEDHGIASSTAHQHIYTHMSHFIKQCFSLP

Dipeptidyl peptidase 2 = Dipeptidyl peptidase 2 (Homo sapiens, UniProt Q9UHL4); experiment: Inhibition of QPP
Dipeptidyl peptidase 8 = Dipeptidyl peptidase 8 (Homo sapiens, UniProt Q6V1X1); experiment: Inhibition of DPP8
Sequence of Dipeptidyl peptidase 8 (Q6V1X1 whole entry): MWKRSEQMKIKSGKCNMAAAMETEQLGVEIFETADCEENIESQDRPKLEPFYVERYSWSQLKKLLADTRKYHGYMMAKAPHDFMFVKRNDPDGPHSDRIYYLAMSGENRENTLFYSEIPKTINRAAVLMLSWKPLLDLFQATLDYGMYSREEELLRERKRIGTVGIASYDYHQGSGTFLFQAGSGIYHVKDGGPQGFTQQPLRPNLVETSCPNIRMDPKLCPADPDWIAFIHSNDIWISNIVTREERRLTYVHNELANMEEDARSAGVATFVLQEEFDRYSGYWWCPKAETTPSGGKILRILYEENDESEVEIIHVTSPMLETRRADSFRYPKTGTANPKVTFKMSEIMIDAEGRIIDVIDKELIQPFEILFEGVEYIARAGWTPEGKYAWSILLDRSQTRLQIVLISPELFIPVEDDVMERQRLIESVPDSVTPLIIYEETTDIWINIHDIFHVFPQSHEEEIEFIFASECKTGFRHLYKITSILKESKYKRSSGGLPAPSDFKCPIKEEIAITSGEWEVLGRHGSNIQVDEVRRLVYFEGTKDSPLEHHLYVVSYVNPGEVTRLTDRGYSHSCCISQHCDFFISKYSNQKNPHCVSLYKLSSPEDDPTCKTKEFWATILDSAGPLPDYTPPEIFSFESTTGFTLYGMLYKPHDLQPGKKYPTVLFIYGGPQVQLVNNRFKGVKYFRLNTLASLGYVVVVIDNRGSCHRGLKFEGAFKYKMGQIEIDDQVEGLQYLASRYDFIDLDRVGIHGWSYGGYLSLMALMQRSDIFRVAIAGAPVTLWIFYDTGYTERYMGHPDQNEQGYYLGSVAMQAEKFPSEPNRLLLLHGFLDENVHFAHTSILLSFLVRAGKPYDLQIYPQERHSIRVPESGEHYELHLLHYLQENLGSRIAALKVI

Dipeptidyl peptidase 9 = Dipeptidyl peptidase 9 (Homo sapiens, UniProt Q86TI2); experiment: Inhibition of DPP9
Sequence of Dipeptidyl peptidase 9 (Q86TI2 whole entry): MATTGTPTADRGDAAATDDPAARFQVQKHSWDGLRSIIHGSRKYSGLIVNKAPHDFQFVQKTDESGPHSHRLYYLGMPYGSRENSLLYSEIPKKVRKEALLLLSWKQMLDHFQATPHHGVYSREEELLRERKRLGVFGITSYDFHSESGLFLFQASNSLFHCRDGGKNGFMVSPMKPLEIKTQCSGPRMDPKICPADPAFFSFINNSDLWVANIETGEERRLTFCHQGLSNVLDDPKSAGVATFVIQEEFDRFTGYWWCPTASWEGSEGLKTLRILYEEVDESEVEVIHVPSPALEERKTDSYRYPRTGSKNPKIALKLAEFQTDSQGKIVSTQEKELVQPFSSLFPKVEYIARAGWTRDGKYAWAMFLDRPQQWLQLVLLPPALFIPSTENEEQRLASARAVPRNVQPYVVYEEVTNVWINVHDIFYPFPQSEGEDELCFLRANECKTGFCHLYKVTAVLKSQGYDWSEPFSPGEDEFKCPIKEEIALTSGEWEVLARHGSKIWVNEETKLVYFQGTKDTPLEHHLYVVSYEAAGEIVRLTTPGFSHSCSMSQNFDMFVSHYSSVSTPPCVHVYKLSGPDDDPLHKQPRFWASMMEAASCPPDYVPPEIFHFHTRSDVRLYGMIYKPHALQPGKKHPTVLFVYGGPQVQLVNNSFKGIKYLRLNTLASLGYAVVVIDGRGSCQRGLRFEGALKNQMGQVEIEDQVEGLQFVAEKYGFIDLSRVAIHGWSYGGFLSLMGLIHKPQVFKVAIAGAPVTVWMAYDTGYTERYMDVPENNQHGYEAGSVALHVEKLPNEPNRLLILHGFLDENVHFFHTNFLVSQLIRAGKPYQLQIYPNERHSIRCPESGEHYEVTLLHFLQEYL

Prolyl endopeptidase FAP = target: T2, Prolyl endopeptidase FAP (Homo sapiens, UniProt Q12884); experiment: Inhibition of FAP
T2 sequence (Q12884 whole entry): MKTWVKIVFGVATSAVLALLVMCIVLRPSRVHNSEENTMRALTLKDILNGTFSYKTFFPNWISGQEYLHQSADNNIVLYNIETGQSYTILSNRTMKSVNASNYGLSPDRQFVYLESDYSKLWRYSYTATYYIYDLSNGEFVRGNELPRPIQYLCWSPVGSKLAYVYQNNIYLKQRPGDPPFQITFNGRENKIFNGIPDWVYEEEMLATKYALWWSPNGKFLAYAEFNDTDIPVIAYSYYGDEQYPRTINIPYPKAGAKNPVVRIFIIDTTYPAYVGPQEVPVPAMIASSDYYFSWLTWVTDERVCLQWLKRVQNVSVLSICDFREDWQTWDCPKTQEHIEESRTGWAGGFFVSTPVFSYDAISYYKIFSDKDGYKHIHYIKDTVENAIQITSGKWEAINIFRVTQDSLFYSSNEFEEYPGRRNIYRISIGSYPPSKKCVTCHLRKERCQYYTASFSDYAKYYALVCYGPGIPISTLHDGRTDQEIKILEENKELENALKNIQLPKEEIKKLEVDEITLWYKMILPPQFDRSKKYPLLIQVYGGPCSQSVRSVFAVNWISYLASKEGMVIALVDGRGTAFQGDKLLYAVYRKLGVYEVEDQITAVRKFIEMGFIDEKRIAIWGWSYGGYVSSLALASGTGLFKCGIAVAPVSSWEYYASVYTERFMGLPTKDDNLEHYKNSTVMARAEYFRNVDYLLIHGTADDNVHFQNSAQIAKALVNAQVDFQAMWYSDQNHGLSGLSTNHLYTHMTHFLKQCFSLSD

Sequence of Xaa-Pro aminopeptidase 1 (Q9NQW7 whole entry): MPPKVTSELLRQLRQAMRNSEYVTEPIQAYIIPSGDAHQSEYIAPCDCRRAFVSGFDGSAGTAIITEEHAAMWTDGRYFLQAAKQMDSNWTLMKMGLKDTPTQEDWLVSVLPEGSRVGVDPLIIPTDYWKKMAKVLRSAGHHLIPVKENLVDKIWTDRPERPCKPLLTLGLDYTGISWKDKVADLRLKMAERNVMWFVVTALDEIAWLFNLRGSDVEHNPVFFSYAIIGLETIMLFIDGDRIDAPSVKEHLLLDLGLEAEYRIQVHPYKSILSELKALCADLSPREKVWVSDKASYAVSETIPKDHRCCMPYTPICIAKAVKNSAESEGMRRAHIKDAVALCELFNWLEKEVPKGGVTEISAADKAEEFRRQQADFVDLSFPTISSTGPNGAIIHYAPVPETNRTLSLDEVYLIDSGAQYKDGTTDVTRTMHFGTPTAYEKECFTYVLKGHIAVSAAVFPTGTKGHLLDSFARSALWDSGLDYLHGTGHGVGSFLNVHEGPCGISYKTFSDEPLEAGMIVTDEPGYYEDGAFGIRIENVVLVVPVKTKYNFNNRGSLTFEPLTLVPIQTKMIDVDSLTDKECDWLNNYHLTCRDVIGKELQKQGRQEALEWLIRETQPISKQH

| Structure (SMILES) | pIC50 (Xaa-Pro aminopeptidase 1) | pIC50 (Xaa-Pro dipeptidase) | pIC50 (Dipeptidyl peptidase 4) | pIC50 (Dipeptidyl peptidase 2) | pIC50 (Dipeptidyl peptidase 8) | pIC50 (Dipeptidyl peptidase 9) | pIC50 (Prolyl endopeptidase FAP) |
| --- | --- | --- | --- | --- | --- | --- | --- |
| N[C@@H](CC(=O)N1CCNC[C@H]1Cc1ccccc1)Cc1ccccc1F | < 5.00 | < 5.00 | – | – | – | – | – |
| N[C@@H](CC(=O)N1CCNCC1)Cc1ccccc1F | < 5.00 | < 5.00 | – | – | – | – | – |
| C[C@H]1CN(C(=O)C[C@H](N)Cc2cc(F)c(F)cc2F)Cc2ccc(C(F)(F)F)n21 | < 5.00 | < 5.00 | 7.64 | < 4.00 | 4.64 | 4.64 | < 5.00 |
| CC1(C)c2nnc(C(F)(F)F)n2CCN1C(=O)C[C@H](N)Cc1cc(F)c(F)cc1F | < 5.00 | < 5.00 | 6.76 | 4.64 | 5.22 | 4.70 | < 5.00 |
| CC1(C)CN(C(=O)C[C@H](N)Cc2cc(F)c(F)cc2F)Cc2nnc(C(F)(F)F)n21 | < 5.00 | < 5.00 | 7.04 | 4.11 | 4.18 | 4.27 | < 5.00 |
| C[C@@H]1Cn2c(nnc2C(F)(F)F)CN1C(=O)C[C@H](N)Cc1cc(F)c(F)cc1F | < 5.00 | < 5.00 | 7.38 | < 4.00 | 4.12 | < 4.00 | < 5.00 |
| C[C@H]1c2nnc(C(F)(F)F)n2[C@@H](C)CN1C(=O)C[C@H](N)Cc1cc(F)c(F)cc1F | < 5.00 | < 5.00 | 6.68 | < 4.00 | < 4.00 | < 4.00 | < 5.00 |
| C[C@H]1c2nnc(C(F)(F)F)n2CCN1C(=O)C[C@H](N)Cc1cc(F)c(F)cc1F | < 5.00 | < 5.00 | 7.06 | < 4.00 | < 4.00 | < 4.00 | < 5.00 |
| C[C@H]1Cn2c(nnc2C(F)(F)F)CN1C(=O)C[C@H](N)Cc1cc(F)c(F)cc1F | < 5.00 | < 5.00 | 7.04 | 4.13 | < 4.00 | 4.28 | < 5.00 |
| N[C@@H](CC(=O)N1CCn2c(nnc2C(F)(F)F)[C@@H]1Cc1ccc(F)cc1)Cc1cc(F)c(F)cc1F | < 5.00 | < 5.00 | 6.94 | 4.41 | < 4.00 | < 4.00 | < 5.00 |
| N[C@@H](CC(=O)N1CCn2c(nnc2C(F)(F)F)C1Cc1ccccc1)Cc1cc(F)c(F)cc1F (single isomer, unassigned) | < 5.00 | < 5.00 | 6.85 | 4.06 | < 4.00 | < 4.00 | < 5.00 |
| CC1c2nnc(C(F)(F)F)n2C(C)CN1C(=O)C[C@H](N)Cc1cc(F)c(F)cc1F (stereo in doubt; 16a) | < 5.00 | < 5.00 | 7.00 | < 4.00 | < 4.00 | < 4.00 | < 5.00 |
| CC1c2nnc(C(F)(F)F)n2C(C)CN1C(=O)C[C@H](N)Cc1cc(F)c(F)cc1F (stereo in doubt; 16d) | < 5.00 | < 5.00 | 7.96 | < 4.00 | 4.36 | 4.21 | < 5.00 |
| CCC1c2nnc(C(F)(F)F)n2CCN1C(=O)C[C@H](N)Cc1cc(F)c(F)cc1F (stereo in doubt; 38a) | < 5.00 | < 5.00 | 6.95 | < 4.00 | < 4.00 | < 4.00 | < 5.00 |
| CCC1c2nnc(C(F)(F)F)n2CCN1C(=O)C[C@H](N)Cc1cc(F)c(F)cc1F (stereo in doubt; 38b) | < 5.00 | < 5.00 | 8.30 | 4.33 | 5.10 | < 4.00 | < 5.00 |
| N[C@@H](CC(=O)N1CCn2c(nnc2C(F)(F)F)C1CC(F)(F)F)Cc1cc(F)c(F)cc1F (stereo in doubt; 39a) | < 5.00 | < 5.00 | 6.91 | 4.52 | < 4.00 | < 4.00 | < 5.00 |
| N[C@@H](CC(=O)N1CCn2c(nnc2C(F)(F)F)C1CC(F)(F)F)Cc1cc(F)c(F)cc1F (stereo in doubt; 39b) | < 5.00 | < 5.00 | 8.24 | 4.22 | 5.80 | 4.59 | < 5.00 |
| C=CCC1c2nnc(C(F)(F)F)n2CCN1C(=O)C[C@H](N)Cc1cc(F)c(F)cc1F (stereo in doubt; 40a) | < 5.00 | < 5.00 | 8.82 | 4.48 | 5.52 | 4.39 | < 5.00 |
| C=CCC1c2nnc(C(F)(F)F)n2CCN1C(=O)C[C@H](N)Cc1cc(F)c(F)cc1F (stereo in doubt; 40b) | < 5.00 | < 5.00 | 7.49 | 4.21 | 4.14 | < 4.00 | < 5.00 |
| CN(C)C(=O)CC1c2nnc(C(F)(F)F)n2CCN1C(=O)C[C@H](N)Cc1cc(F)c(F)cc1F (stereo in doubt; 41a) | < 5.00 | < 5.00 | 6.42 | < 4.00 | < 4.00 | < 4.00 | < 5.00 |
| N[C@@H](CC(=O)N1CCn2c(nnc2C(F)(F)F)C1Cc1ccccc1)Cc1cc(F)c(F)cc1F (stereo in doubt; 42b) | < 5.00 | < 5.00 | 9.18 | 4.28 | 6.21 | 4.62 | < 5.00 |
| COc1ccc(CC2c3nnc(C(F)(F)F)n3CCN2C(=O)C[C@H](N)Cc2cc(F)c(F)cc2F)cc1 (stereo in doubt; 43a) | < 5.00 | < 5.00 | 6.49 | < 4.00 | < 4.00 | < 4.00 | < 5.00 |
| COc1ccc(CC2c3nnc(C(F)(F)F)n3CCN2C(=O)C[C@H](N)Cc2cc(F)c(F)cc2F)cc1 (stereo in doubt; 43b) | < 5.00 | < 5.00 | 9.37 | 4.24 | 6.44 | 4.74 | < 5.00 |
| N[C@@H](CC(=O)N1CCn2c(nnc2C(F)(F)F)C1Cc1ccccc1C(F)(F)F)Cc1cc(F)c(F)cc1F (stereo in doubt; 44a) | < 5.00 | < 5.00 | 6.36 | 4.08 | < 4.00 | < 4.00 | < 5.00 |
| N[C@@H](CC(=O)N1CCn2c(nnc2C(F)(F)F)C1Cc1ccccc1C(F)(F)F)Cc1cc(F)c(F)cc1F (stereo in doubt; 44b) | < 5.00 | < 5.00 | 9.51 | 4.39 | 5.10 | < 4.00 | < 5.00 |
| N[C@@H](CC(=O)N1CCn2c(nnc2C(F)(F)F)C1Cc1ccccc1F)Cc1cc(F)c(F)cc1F (stereo in doubt; 45a) | < 5.00 | < 5.00 | 6.88 | 4.12 | < 4.00 | < 4.00 | < 5.00 |
